ChEMBL document CHEMBL1201862, “PubChem BioAssay data set” (2004)
Calls of active or inactive are those of the source.

Tests used:
Assay type in all cases: functional
[1] = molecular target: Glycogen synthase kinase-3 alpha (Homo sapiens, UniProt P49840); assay: human GSK3 alpha kinase inhibition, dose response, selectivity assay for GSK3beta inhibitor project, biochemical, microfluidics, dry powder samples, set 2 (AID 623978)
[2] = molecular target: Glycogen synthase kinase-3 beta (Homo sapiens, UniProt P49841); assay: GSK3beta kinase inhibitors, dose response, biochemical, microfluidics, dry powder samples, set 2 (AID 623989)
[3] = molecular target: Calcium/calmodulin-dependent protein kinase type II subunit gamma (Homo sapiens, UniProt Q13555)
[4] = molecular target: Receptor tyrosine-protein kinase erbB-4 (Homo sapiens, UniProt Q15303);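 note: ERBB4 member of a kinome-wide kinase profiling panel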
[5] = molecular target: Serine/threonine-protein kinase pim-1 (Homo sapiens, UniProt P11309)
[6] = molecular target: Serine/threonine-protein kinase Chk2 (Homo sapiens, UniProt O96017);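 note: CHEK2 entry within a kinome-wide screening panel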
[7] = molecular target: Ribosomal protein S6 kinase beta-1 (Homo sapiens, UniProt P23443);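 note: measured as one member of a kinome-wide profiling panel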
[8] = molecular target: Protein-tyrosine kinase 6 (Homo sapiens, UniProt Q13882)
[9] = molecular target: Mitogen-activated protein kinase 8 (Homo sapiens, UniProt P45983);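 note: value comes from one member of a kinome-wide kinase profiling panel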
[10] = molecular target: cGMP-dependent protein kinase 1 (Homo sapiens, UniProt Q13976);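 note: value from a kinome panel screen with PRKG1 as the panel member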
[11] = molecular target: Mitogen-activated protein kinase 12 (Homo sapiens, UniProt P53778);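 note: measured as one member of a kinome-wide kinase profiling panel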
[12] = molecular target: Casein kinase I isoform alpha (Homo sapiens, UniProt P48729)
[13] = molecular target: Tyrosine-protein kinase ABL1 (Homo sapiens, UniProt P00519)
[14] = molecular target: Protein kinase C iota type (Homo sapiens, UniProt P41743);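 note: measured within a kinome-wide kinase panel, PRKCI as panel member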
[15] = molecular target: Protein-tyrosine kinase 2-beta (Homo sapiens, UniProt Q14289)
[16] = molecular target: Homeodomain-interacting protein kinase 2 (Homo sapiens, UniProt Q9H2X6);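 note: measured within a kinome-wide kinase profiling panel, HIPK2 being one panel member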
[17] = molecular target: Protein kinase C delta type (Homo sapiens, UniProt Q05655)
[18] = molecular target: Proto-oncogene tyrosine-protein kinase ROS (Homo sapiens, UniProt P08922);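 note: ROS1 tested as one member of a kinome-wide kinase panel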
[19] = molecular target: Fibroblast growth factor receptor 3 (Homo sapiens, UniProt P22607)
[20] = THP-1 cell cytotoxicity, cytotoxicity control, set 4 (AID 504911); conditions: Mycobacterium tuberculosis
[21] = A Cell Based Secondary Assay to Explore Cytotoxicity in HepG2 Cells of Compounds that Modulate Mycobacterium tuberculosis in Media Containing Glycerol versus Media without Glycerol (2).
[22] = HepG2 cell cytotoxicity, dose response, cytotoxicity control, set 3 (AID 504853); conditions: Mycobacterium tuberculosis
[23] = THP-1 cell cytotoxicity, dose response, cytotoxicity control, set 3 (AID 504852); conditions: Mycobacterium tuberculosis
[24] = Vero cell cytotoxicity, dose response, cytotoxicity control for M. tuberculosis growth inhibitor project, Vero cells, purified and synthesized compounds, set 4 (AID 504854); conditions: Mycobacterium tuberculosis
[25] = Vero cell cytotoxicity, dose response, cytotoxicity control for M. tuberculosis growth inhibitor project, Vero cells, purified and synthesized compounds, set 5 (AID 504909); conditions: Mycobacterium tuberculosis
[26] = Vero cell cytotoxicity, cytotoxicity control for M. tuberculosis inhibitor project, purified and synthesized samples, set 3 (AID 504684)
[27] = A Cell Based Secondary Assay to Explore Cytotoxicity in THP-1 Cells of Compounds that Modulate Mycobacterium tuberculosis in Media Containing Glycerol versus Media without Glycerol (2).

Sequence of cGMP-dependent protein kinase 1 (Q13976 whole entry): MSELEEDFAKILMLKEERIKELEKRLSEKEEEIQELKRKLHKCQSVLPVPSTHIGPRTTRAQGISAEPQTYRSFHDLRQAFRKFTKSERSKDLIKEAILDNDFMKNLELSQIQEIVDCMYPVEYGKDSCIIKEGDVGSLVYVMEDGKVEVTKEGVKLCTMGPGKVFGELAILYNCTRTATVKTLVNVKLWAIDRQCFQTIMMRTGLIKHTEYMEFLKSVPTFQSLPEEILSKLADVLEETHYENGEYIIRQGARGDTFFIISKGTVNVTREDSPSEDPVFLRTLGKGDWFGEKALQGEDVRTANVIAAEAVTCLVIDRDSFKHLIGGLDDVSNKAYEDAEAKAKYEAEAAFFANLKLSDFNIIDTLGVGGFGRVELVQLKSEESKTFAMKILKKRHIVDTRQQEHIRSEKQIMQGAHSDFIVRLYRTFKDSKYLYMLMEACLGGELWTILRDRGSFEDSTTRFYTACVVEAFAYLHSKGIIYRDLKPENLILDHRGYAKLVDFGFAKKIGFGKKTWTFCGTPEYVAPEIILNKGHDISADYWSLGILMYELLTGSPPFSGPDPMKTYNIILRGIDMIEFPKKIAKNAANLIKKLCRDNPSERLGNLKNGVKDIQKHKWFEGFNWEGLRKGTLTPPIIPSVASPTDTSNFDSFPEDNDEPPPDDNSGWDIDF
Sequence of Proto-oncogene tyrosine-protein kinase ROS (P08922 whole entry): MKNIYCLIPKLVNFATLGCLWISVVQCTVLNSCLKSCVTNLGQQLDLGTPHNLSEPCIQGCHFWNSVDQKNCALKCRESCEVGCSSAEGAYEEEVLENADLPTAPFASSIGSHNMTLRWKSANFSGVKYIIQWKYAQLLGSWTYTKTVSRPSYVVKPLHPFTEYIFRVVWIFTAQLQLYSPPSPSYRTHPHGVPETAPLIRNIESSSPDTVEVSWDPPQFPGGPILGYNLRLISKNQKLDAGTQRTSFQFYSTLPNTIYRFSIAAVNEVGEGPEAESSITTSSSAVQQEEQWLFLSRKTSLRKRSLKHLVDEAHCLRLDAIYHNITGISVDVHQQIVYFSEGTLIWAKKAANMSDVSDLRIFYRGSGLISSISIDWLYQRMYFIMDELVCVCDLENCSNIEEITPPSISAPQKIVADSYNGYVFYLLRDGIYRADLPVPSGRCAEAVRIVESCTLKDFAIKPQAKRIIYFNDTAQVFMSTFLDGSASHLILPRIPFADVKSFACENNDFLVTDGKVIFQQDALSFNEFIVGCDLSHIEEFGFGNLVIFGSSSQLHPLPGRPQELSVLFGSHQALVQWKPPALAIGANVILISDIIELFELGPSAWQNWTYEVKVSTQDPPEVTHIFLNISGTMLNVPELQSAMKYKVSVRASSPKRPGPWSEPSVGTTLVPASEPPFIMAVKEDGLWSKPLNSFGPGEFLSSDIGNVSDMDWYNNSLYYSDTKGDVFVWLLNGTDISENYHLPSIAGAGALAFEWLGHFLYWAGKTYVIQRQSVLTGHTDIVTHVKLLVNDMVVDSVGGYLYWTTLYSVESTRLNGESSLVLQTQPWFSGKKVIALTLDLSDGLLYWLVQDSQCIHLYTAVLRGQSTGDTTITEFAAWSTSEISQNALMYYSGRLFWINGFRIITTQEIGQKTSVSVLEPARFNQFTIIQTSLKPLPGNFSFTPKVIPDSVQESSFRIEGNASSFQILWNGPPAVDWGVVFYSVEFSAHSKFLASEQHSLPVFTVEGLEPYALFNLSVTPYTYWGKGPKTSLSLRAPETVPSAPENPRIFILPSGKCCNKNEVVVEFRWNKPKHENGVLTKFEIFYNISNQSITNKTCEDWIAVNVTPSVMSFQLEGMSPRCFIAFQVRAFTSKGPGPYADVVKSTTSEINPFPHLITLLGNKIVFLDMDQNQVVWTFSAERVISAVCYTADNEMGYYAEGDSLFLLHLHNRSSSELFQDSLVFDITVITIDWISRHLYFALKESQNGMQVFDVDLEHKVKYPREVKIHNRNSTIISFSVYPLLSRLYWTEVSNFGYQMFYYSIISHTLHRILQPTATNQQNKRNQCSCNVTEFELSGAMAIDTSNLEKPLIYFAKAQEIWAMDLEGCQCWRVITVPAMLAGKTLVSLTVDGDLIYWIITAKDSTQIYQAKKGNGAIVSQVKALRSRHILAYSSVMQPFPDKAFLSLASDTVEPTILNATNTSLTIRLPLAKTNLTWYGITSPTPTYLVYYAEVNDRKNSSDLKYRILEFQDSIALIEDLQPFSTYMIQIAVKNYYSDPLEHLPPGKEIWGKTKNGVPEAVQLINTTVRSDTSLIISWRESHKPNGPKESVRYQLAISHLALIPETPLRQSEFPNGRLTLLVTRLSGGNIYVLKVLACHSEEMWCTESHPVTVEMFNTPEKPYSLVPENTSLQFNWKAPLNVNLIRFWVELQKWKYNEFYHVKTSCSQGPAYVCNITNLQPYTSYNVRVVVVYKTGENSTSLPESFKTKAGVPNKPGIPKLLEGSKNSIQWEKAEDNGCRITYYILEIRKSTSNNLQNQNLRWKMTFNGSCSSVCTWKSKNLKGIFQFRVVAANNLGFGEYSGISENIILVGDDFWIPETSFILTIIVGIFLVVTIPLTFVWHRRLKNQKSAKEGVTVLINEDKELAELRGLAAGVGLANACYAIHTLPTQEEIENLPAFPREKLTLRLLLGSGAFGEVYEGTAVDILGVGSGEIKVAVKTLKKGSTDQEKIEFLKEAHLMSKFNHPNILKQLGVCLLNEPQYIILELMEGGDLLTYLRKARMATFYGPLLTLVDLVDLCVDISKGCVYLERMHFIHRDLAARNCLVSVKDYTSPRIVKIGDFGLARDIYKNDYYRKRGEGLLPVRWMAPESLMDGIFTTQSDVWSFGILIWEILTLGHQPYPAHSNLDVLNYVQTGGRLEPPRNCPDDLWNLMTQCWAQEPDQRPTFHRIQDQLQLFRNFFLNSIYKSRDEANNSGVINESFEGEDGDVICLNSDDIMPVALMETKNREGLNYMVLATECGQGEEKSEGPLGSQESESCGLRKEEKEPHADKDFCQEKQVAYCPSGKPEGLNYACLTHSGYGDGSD
Sequence of Homeodomain-interacting protein kinase 2 (Q9H2X6 whole entry): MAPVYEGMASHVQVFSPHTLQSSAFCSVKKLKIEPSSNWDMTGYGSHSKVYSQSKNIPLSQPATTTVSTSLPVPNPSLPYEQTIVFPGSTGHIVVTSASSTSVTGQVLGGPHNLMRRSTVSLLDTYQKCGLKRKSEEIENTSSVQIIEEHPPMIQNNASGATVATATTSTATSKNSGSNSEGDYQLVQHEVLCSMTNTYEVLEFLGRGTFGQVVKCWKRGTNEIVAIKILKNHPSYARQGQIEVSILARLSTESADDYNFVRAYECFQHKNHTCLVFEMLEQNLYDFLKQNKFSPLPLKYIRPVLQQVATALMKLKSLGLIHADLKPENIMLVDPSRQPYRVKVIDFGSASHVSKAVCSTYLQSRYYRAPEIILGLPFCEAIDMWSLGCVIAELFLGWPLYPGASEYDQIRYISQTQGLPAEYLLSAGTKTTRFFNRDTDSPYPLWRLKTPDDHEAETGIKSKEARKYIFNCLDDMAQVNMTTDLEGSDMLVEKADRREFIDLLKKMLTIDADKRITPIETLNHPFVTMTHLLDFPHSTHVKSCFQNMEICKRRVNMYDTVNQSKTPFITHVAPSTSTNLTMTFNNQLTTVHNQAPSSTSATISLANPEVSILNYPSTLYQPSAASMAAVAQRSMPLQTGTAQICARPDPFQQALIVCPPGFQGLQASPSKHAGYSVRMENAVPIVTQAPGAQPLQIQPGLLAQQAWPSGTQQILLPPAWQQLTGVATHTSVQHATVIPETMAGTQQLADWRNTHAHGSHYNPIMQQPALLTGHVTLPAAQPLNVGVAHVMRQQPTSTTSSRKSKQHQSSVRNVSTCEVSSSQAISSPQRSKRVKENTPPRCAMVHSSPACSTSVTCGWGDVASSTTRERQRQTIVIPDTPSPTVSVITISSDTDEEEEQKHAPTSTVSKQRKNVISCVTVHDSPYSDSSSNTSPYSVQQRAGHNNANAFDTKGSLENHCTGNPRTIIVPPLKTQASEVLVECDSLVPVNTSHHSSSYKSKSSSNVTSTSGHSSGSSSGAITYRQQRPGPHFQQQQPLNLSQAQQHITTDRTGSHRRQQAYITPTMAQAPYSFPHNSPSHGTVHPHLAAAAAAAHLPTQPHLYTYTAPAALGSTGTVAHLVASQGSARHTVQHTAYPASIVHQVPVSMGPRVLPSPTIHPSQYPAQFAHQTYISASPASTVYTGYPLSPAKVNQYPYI
Sequence of Glycogen synthase kinase-3 beta (P49841 whole entry): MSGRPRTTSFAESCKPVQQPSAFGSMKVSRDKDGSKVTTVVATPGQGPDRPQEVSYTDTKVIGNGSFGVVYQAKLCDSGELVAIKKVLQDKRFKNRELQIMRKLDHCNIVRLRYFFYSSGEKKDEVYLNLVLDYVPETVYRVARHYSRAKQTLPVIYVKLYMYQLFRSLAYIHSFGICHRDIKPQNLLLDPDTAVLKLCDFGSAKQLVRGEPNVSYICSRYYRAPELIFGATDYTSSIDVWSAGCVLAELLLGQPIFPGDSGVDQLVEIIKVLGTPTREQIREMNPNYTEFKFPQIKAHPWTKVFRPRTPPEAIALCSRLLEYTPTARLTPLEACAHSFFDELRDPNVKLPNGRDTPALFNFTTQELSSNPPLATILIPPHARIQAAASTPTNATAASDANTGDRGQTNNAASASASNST
Sequence of Mitogen-activated protein kinase 12 (P53778 whole entry, canonical isoform): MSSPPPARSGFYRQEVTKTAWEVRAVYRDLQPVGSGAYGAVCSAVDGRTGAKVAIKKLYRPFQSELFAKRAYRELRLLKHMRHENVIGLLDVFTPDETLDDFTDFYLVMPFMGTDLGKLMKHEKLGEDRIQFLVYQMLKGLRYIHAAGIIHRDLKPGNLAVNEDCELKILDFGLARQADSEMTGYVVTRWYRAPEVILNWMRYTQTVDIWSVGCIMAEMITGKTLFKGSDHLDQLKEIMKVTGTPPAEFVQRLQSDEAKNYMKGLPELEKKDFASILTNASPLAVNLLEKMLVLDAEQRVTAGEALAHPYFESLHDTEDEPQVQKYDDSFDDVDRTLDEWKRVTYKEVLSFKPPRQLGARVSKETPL

Q: For `Nc1nc(NCC2CCCO2)nc(Nc2ccc(F)cc2)c1[N+](=O)[O-]` (configuration not stated), which AC50 [1] is on record?
A: The AC50 was 2.42 µM (active).

Q: What about the AC50 [2] of the same compound?
A: Its AC50 is 0.802 µM (active).

Q: Which Ki [3] does the source give for `CCC1C(=O)N(C)c2cnc(Nc3ccc(C(=O)NC4CCN(C)CC4)cc3OC)nc2N1C1CCCC1` (configuration not stated) here?
A: The Ki was 0.2 µM (active).

Q: What about the Ki [4] of the same compound?
A: The Ki was > 3.98 µM (inactive).

Q: What about the Ki [5] of the same compound?
A: Its Ki is > 10 µM (inactive).

Q: And the Ki [6]?
A: The Ki was 1.58 µM (active).

Q: And the Ki [7]?
A: The Ki was > 6.31 µM (inactive).

Q: What about the Ki [8] of the same compound?
A: Its Ki is > 2.51 µM (inactive).

Q: What about the Ki [9] of the same compound?
A: Its Ki is > 3.16 µM (inactive).

Q: And the Ki [10]?
A: Its Ki is > 2 µM (inactive).

Q: What about the Ki [11] of the same compound?
A: Its Ki is > 6.31 µM (inactive).

Q: What about the Ki [12] of the same compound?
A: The Ki was > 6.31 µM (inactive).

Q: And the Ki [13]?
A: The Ki was > 0.631 µM (inactive).

Q: What about the Ki [14] of the same compound?
A: Its Ki is > 5.01 µM (inactive).

Q: What about the Ki [15] of the same compound?
A: The Ki was 0.631 µM (active).

Q: And the Ki [16]?
A: Its Ki is > 3.16 µM (inactive).

Q: What about the Ki [17] of the same compound?
A: The Ki was > 6.31 µM (inactive).

Q: What about the Ki [18] of the same compound?
A: Its Ki is > 2 µM (inactive).

Q: What about the Ki [19] of the same compound?
A: Its Ki is > 2 µM (inactive).

Q: With `Cc1cc(C)n2nc(N)c(/N=N/c3ccccc3)c2n1` as the compound, how does the CC50 [20] read?
A: Its CC50 is > 99.5 µM (active).

Q: What about the CC50 [21] of the same compound?
A: Its CC50 is > 50 µM (active).

Q: And the CC50 [22]?
A: The CC50 was > 50 µM (active).

Q: And the CC50 [23]?
A: The CC50 was > 100 µM (active).

Q: And the CC50 [24]?
A: The CC50 was 93 µM (active).

Q: And the CC50 [25]?
A: The CC50 was > 100 µM (active).

Q: What about the CC50 [26] of the same compound?
A: The CC50 was 83.7 µM (active).

Q: And the CC50 [27]?
A: Its CC50 is > 100 µM (active).
